# Measurements reported in US8980944B2 (Gemmus Pharma Inc., priority 2006, dated 2015).
# “And” between values parts separate entries of the source, which are not always exact repeats. Equal values may be shown once.
# Columns and labels:
# TNFα [1] = test: Poly(I:C)-stimulated human peripheral blood lymphocytes, TNFα release (ELISA)
# IL-12 [2] = settings: DC activated in the presence of PGE2; Hilkens et al. 1996; cited from earlier work
# TNFα [3] = test: TNFα release from human monocyte-derived dendritic cells activated with LPS, CD40 ligand or CpG-DNA (ELISA); type: cell-based; settings: 1 μM; for TNFα in culture supernatant: 18 hours
# Experimental: Human donor monocyte-derived dendritic cells were cultured in RPMI-1640 containing 10% fetal bovine serum for six days in the presence of 10 ng/mL IL-4 and 200 ng/mL GM-CSF. The cells were activated with various activation stimuli: 10 ng/mL LPS (Sigma), 5 μg/mL Recombinant human CD-40 ligand (R&D Systems), or 5 μM Human CpG-DNA (HyCult Biotechnology) in the presence of prostaglandin E2 (PGE2) (1 μM), vehicle control (DMSO) or test substances (1 μM) for 18 hours. The levels of cell culture supernatant TNFα for individual donors was measured by commercial ELISA kits.
# TNFα [4] = test: Poly(I:C)-stimulated human monocyte-derived dendritic cells, TNFα release (ELISA); type: cell-based; settings: Poly IC-stimulated monocyte-derived dendritic cells, one micromolar, 18 hours
# IL-12 [5] = test: LPS-stimulated human monocyte-derived dendritic cells, IL-12 release (ELISA); settings: 1 μM; human monocyte-derived dendritic cells, LPS stimulation; individual donors 1-4
# H5N1 influenza virus = settings: mice infected with H5N1 influenza virus, treated; cited from earlier work
# [6] = CD40 ligand 5 μg/mL, Donor 3, Vehicle 567.1
# [7] = CD40 ligand 5 μg/mL, Donor 4, Vehicle 546.3
# [8] = CD40 ligand 5 μg/mL, Donor 6, Vehicle 541.8
# [9] = CpG 5 μM, Donor 1, Vehicle 2155.9
# [10] = CpG 5 μM, Donor 3, Vehicle 1340.7
# [11] = CpG 5 μM, Donor 6, Vehicle 467.8
# [12] = LPS 10 ng/mL, Donor 4, Vehicle 3566.9
# [13] = LPS 10 ng/mL, Donor 6, Vehicle 10750.1
compound,measurement,setting,value
"CC#CCC(C)[C@H](O)/C=C/[C@@H]1[C@H]2c3cccc(CCCC(=O)O)c3O[C@H]2C[C@H]1O (relative stereo) [Beraprost, (+/−)-(1R*,2R*,3 as*,8bS*)-2,3,3a,8b-tetrahydro-2-hydroxy-1-[(E)-(3S*)-3-hydroxy-4-methyl-1-octen-6-ynyl]-1H-cyclopenta[b]benzofuran-5-butyrate]",TNFα percent inhibition from untreated control,"TNFα [1]; Beraprost 0.04 nM, Poly IC-stimulated peripheral blood lymphocytes, individual donors 1-2",4%
same,TNFα percent inhibition from untreated control,"TNFα [1]; Beraprost 0.11 nM, Poly IC-stimulated peripheral blood lymphocytes, individual donors 1-2",26%
same,TNFα percent inhibition from untreated control,"TNFα [1]; Beraprost 1 nM, Poly IC-stimulated peripheral blood lymphocytes, individual donors 1-2",11% and 28%
same,TNFα percent inhibition from untreated control,"TNFα [1]; Beraprost 3 nM, Poly IC-stimulated peripheral blood lymphocytes, individual donors 1-2",36% and 11%
same,TNFα percent inhibition from untreated control,"TNFα [1]; Beraprost 9 nM, Poly IC-stimulated peripheral blood lymphocytes, individual donors 1-2",35%
same,TNFα percent inhibition from untreated control,"TNFα [1]; Beraprost 250 nM, Poly IC-stimulated peripheral blood lymphocytes, individual donors 1-2",59%
same,inhibition at 0.00011 µM,"TNFα [1]; Homo sapiens, Lymphocyte, read-out: TNFα percent inhibition from untreated control, Beraprost 0.11 nM, Poly IC-stimulated peripheral blood lymphocytes, individual donors 1-2",19%
same,inhibition at 0.009 µM,"TNFα [1]; Homo sapiens, Lymphocyte, read-out: TNFα percent inhibition from untreated control, Beraprost 9 nM, Poly IC-stimulated peripheral blood lymphocytes, individual donors 1-2",46%
same,inhibition at 0.083 µM,"TNFα [1]; Homo sapiens, Lymphocyte, read-out: TNFα percent inhibition from untreated control, Beraprost 83 nM, Poly IC-stimulated peripheral blood lymphocytes, individual donors 1-2",56%
same,inhibition at 0.25 µM,"TNFα [1]; Homo sapiens, Lymphocyte, read-out: TNFα percent inhibition from untreated control, Beraprost 250 nM, Poly IC-stimulated peripheral blood lymphocytes, individual donors 1-2",67%
same,Poly(I:C)-induced TNFα,TNFα [1]; peripheral blood lymphocytes,significant descrease
"CCCCC[C@H](O)/C=C/[C@H]1[C@H](O)CC(=O)[C@@H]1C/C=C\CCCC(=O)O [PGE2, prostaglandin E2, reference compound]",IL-12 production by dendritic cells,IL-12 [2],impaired IL-12 production
same,TNFα in culture supernatant,TNFα [3]; [6],147.9 pg/mL
same,TNFα in culture supernatant,TNFα [3]; [7],87.0 pg/mL
same,TNFα in culture supernatant,TNFα [3]; [8],54.2 pg/mL
same,TNFα in culture supernatant,TNFα [3]; [9],104.5 pg/mL
same,TNFα in culture supernatant,TNFα [3]; [10],70.0 pg/mL
same,TNFα in culture supernatant,TNFα [3]; [11],106.2 pg/mL
same,TNFα in culture supernatant,TNFα [3]; [12],0.0 pg/mL
same,TNFα in culture supernatant,TNFα [3]; [13],174.8 pg/mL
same,TNFα percent inhibition from untreated control,TNFα [4]; Donor 1,96%
same,TNFα percent inhibition from untreated control,TNFα [4]; Donor 2,63%
same,TNFα percent inhibition from untreated control,TNFα [4]; Donor 3,81%
same,TNFα percent inhibition from untreated control,TNFα [4]; Donor 4,29%
same,Percent inhibition of IL-12 compared to uninhibited control,IL-12 [5],80% and 33% and 83% and 72%
"CCOC(=O)C1=C[C@@H](OC(CC)CC)[C@H](NC(C)=O)[C@@H](N)C1 [Tamiflu, oseltamivir]",survival of infected mice,H5N1 influenza virus,survived
"CCC1(CC/C=C/C2C(C/C=C\CCCC(=O)O)[C@H](Cl)C[C@H]2O)CCCC1 (stereo partly drawn) [Test Substance 1, (5Z,13E)-(9R,11R)-9-chloro-11-hydroxy-17,17-tetramethylene-20-nor-5,13-prostadienoic acid]",cytokine levels measured in the culture supernatant,"TNFα [3]; LPS, CD40 ligand or CpG activation",led to an inhibition in the cytokine levels
same,TNFα in culture supernatant,TNFα [3]; [6],274.3 pg/mL
same,TNFα in culture supernatant,TNFα [3]; [7],226.8 pg/mL
same,TNFα in culture supernatant,TNFα [3]; [8],142.4 pg/mL
same,TNFα in culture supernatant,TNFα [3]; [9],291.3 pg/mL
same,TNFα in culture supernatant,TNFα [3]; [10],599.4 pg/mL
same,TNFα in culture supernatant,TNFα [3]; [11],115.9 pg/mL
same,TNFα in culture supernatant,TNFα [3]; [12],643.6 pg/mL
same,TNFα in culture supernatant,TNFα [3]; [13],753.7 pg/mL
